In ChEMBL document CHEMBL1143001, “Designing active template molecules by combining computational de novo design and human chemist's expertise” (J Med Chem, 2007):
Active and inactive are the calls of the source. The rule behind the calls is not given here.

Organism: Canis lupus familiaris
Test: Inhibition of dog kidney (Na+/K+) ATPase at 10 uM
Details: not given

SMILES	Activity
Nc1cccc(-c2ccoc2)c1	inactive
O=C(O)c1ccccc1C1CCCNC1 (stereo not drawn)	inactive
N#Cc1cccc(CC2CCCNC2=O)c1 (stereo not drawn)	inactive
O=C(O)CCC(=O)Nc1ccc(-c2ccoc2)cc1	inactive

The compounds below were run against Substance-P receptor (Homo sapiens) (UniProt P25103) (assay: Displacement of radiolabeled [Sar9,Met(O2)11]-SP from NK1 receptor expressed in U373MG cells at 10 uM). Details: U-373MG ATCC.
Format: cell-based

Chain of Substance-P receptor (Homo sapiens) (P25103 whole entry): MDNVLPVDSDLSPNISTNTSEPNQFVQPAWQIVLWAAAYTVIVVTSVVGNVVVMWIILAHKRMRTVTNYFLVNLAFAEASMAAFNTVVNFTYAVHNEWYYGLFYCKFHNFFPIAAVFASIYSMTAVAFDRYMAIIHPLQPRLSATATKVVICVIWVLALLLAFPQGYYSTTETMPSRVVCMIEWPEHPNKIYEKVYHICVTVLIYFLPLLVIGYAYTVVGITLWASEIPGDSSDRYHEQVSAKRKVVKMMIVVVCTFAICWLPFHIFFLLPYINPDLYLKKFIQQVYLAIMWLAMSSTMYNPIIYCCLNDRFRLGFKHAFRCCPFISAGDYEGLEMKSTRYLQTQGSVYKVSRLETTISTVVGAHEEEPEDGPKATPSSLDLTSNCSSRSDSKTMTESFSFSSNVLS

SMILES	Activity
O=C(O)c1ccccc1C1CCCNC1 (stereo not drawn)	inactive

The compounds below were run on Protein kinase C (Rattus norvegicus) (assay: Inhibition of rat brain PKC at 10 uM). Details: not given.

SMILES	Activity
Nc1cccc(-c2ccoc2)c1	inactive
O=C(O)c1ccccc1C1CCCNC1 (stereo not drawn)	inactive
N#Cc1cccc(CC2CCCNC2=O)c1 (stereo not drawn)	inactive
O=C(O)CCC(=O)Nc1ccc(-c2ccoc2)cc1	inactive

The compounds below were run against Sodium-dependent dopamine transporter (Homo sapiens) (UniProt Q01959) (assay: Displacement of radiolabeled BTCP from human recombinant DAT expressed in CHO cells at 10 uM). Details: not given.
Format: cell-based

Chain of Sodium-dependent dopamine transporter (Homo sapiens) (Q01959 whole entry): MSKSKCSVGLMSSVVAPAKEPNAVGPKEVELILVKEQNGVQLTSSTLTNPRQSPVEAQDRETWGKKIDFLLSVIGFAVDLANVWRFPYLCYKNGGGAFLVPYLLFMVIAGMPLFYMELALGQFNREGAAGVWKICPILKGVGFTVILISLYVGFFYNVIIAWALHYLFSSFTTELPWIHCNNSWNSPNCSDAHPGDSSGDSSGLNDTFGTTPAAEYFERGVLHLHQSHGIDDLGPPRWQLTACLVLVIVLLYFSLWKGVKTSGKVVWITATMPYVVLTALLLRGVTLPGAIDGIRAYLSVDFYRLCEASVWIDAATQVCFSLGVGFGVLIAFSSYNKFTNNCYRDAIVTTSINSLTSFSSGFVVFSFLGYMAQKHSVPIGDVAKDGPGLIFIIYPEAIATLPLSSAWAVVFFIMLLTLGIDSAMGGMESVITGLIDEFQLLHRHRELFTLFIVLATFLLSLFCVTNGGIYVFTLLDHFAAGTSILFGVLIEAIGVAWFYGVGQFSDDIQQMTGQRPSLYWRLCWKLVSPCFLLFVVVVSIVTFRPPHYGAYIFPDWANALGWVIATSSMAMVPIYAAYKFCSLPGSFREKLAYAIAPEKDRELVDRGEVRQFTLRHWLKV

SMILES	Activity
O=C(O)c1ccccc1C1CCCNC1 (stereo not drawn)	inactive

The compounds below were run against Muscarinic acetylcholine receptor M4 (Rattus norvegicus) (UniProt P08485) (assay: Displacement of radiolabeled atropine from rat brain muscarinic M4 receptor at 10 uM). Details: not given.

SMILES	Activity
O=C(O)c1ccccc1C1CCCNC1 (stereo not drawn)	inactive

Organism: Homo sapiens
Test: Displacement of radiolabeled ligand from nicotinic acetylcholine receptor at 10 uM
Details: not given

SMILES	inhibition [%]	Activity
Nc1cccc(-c2ccoc2)c1	42	
O=C(O)c1ccccc1C1CCCNC1 (stereo not drawn)		inactive

Organism: Rattus norvegicus
Test: Inhibition of rat striatum tyrosine hydroxylase at 10 uM
Format: tissue-based
Details: not given

SMILES	Activity
Nc1cccc(-c2ccoc2)c1	inactive
O=C(O)c1ccccc1C1CCCNC1 (stereo not drawn)	inactive
N#Cc1cccc(CC2CCCNC2=O)c1 (stereo not drawn)	inactive
O=C(O)CCC(=O)Nc1ccc(-c2ccoc2)cc1	inactive

Each compound was assayed against Sodium-dependent serotonin transporter (Homo sapiens) (UniProt P31645) (assay: Displacement of radiolabeled Imipramine from human recombinant 5HT transporter expressed in HEK293 cells at 10 uM). Details: not given.
Format: cell-based

SMILES	Activity
O=C(O)c1ccccc1C1CCCNC1 (stereo not drawn)	inactive

These compounds were tested against T1, Amine oxidase [flavin-containing] B (Homo sapiens, UniProt P27338) (assay: Inhibition of MAOB in human platelets at 10 uM). Details: not given.
T1 sequence (P27338 whole entry): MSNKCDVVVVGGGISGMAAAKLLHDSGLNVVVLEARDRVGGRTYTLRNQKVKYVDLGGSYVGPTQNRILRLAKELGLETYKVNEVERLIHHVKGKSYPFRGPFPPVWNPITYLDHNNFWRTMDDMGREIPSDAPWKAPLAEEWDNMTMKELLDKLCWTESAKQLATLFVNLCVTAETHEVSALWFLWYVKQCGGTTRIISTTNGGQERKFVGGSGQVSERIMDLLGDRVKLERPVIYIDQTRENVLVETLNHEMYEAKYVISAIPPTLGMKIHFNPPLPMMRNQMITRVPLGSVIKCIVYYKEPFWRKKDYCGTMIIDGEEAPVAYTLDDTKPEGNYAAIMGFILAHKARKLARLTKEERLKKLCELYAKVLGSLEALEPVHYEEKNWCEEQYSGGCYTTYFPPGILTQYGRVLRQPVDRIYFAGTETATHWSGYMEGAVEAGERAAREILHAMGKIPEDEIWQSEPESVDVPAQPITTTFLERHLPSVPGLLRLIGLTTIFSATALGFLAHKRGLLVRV

SMILES	Activity
Nc1cccc(-c2ccoc2)c1	Not Active
O=C(O)c1ccccc1C1CCCNC1 (stereo not drawn)	Not Active
N#Cc1cccc(CC2CCCNC2=O)c1 (stereo not drawn)	Not Active
O=C(O)CCC(=O)Nc1ccc(-c2ccoc2)cc1	Not Active

These compounds were tested against Muscarinic acetylcholine receptor M1 (Rattus norvegicus) (UniProt P08482) (assay: Displacement of radiolabeled atropine from rat brain muscarinic M1 receptor at 10 uM). Details: not given.

SMILES	Activity
O=C(O)c1ccccc1C1CCCNC1 (stereo not drawn)	inactive

Organism: Bos taurus
Test: Inhibition of bovine PDE1 at 10 uM
Details: not given

SMILES	Activity
Nc1cccc(-c2ccoc2)c1	inactive
O=C(O)c1ccccc1C1CCCNC1 (stereo not drawn)	inactive
N#Cc1cccc(CC2CCCNC2=O)c1 (stereo not drawn)	inactive
O=C(O)CCC(=O)Nc1ccc(-c2ccoc2)cc1	inactive

These compounds were tested against Cannabinoid receptor 1 (Homo sapiens) (UniProt P21554) (assay: Displacement of radiolabeled WIN-55212-2 from human CB1 receptor expressed in HEK293 cells at 10 uM). Details: not given.
Format: cell-based

Chain of Cannabinoid receptor 1 (Homo sapiens) (P21554 whole entry): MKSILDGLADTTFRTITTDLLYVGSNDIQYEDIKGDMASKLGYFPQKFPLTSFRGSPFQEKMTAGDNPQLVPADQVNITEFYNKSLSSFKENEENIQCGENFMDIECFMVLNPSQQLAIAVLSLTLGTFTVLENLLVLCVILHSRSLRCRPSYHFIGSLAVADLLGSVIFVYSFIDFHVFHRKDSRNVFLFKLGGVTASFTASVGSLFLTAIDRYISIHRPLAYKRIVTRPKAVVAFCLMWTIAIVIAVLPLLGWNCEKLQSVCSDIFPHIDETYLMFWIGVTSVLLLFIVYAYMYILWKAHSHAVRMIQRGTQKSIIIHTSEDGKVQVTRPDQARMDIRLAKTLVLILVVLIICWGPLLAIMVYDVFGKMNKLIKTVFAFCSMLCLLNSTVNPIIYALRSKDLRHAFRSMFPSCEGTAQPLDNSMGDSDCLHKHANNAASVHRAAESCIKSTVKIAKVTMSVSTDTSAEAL

SMILES	Activity
O=C(O)c1ccccc1C1CCCNC1 (stereo not drawn)	inactive

Each compound was assayed against Sodium-dependent noradrenaline transporter (Homo sapiens) (UniProt P23975) (assay: Displacement of radiolabeled protriptyline from human recombinant NET expressed in CHO cells at 10 uM). Details: not given.
Format: cell-based

Chain of Sodium-dependent noradrenaline transporter (Homo sapiens) (P23975 whole entry): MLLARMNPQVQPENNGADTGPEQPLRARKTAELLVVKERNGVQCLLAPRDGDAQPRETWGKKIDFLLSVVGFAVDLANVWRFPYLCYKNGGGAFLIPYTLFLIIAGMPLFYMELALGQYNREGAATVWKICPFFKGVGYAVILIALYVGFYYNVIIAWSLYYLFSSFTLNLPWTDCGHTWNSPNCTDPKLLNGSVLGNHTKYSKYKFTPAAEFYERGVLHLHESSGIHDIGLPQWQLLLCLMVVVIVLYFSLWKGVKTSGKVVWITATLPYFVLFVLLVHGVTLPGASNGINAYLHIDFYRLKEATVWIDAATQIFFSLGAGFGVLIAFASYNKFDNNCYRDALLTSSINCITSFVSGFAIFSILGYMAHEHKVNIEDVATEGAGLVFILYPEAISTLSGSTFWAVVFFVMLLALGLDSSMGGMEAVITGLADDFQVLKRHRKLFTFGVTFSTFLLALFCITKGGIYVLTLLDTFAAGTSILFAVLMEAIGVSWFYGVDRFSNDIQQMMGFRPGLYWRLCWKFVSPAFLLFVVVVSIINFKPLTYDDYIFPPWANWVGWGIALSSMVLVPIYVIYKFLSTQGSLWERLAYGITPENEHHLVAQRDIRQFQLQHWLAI

SMILES	inhibition [%]	Activity
Nc1cccc(-c2ccoc2)c1	80	
O=C(O)c1ccccc1C1CCCNC1 (stereo not drawn)		inactive

The compounds below were run against cGMP-dependent 3',5'-cyclic phosphodiesterase (Homo sapiens) (UniProt O00408) (assay: Inhibition of PDE2 expressed in differentiated U937 cells at 10 uM). Details: U-937.
Format: cell-based

Chain of cGMP-dependent 3',5'-cyclic phosphodiesterase (Homo sapiens) (O00408 whole entry): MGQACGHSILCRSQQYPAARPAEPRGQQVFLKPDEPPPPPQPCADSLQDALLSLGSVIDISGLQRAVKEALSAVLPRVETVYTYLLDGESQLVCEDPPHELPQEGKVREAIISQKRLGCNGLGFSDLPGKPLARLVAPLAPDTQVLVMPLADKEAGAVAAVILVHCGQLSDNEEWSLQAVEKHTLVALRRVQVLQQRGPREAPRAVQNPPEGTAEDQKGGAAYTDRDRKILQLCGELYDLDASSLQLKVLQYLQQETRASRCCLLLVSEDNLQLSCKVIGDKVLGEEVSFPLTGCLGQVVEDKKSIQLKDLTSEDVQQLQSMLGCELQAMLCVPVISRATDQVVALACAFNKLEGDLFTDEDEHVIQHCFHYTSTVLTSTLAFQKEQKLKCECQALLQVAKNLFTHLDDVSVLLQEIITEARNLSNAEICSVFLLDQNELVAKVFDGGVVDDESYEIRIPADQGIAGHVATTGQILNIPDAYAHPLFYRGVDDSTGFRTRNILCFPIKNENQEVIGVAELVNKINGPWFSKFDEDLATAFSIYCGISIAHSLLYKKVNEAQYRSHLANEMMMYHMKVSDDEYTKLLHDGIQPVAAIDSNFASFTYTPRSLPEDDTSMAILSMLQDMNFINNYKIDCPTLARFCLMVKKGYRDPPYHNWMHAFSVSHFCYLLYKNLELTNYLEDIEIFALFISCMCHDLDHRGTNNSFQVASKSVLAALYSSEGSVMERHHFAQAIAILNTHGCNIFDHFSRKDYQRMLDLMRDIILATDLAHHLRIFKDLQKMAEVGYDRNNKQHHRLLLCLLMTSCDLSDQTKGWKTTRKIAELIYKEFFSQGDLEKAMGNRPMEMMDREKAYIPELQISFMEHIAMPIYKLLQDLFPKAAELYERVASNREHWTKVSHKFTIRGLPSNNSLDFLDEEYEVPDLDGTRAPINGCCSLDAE

SMILES	Activity
Nc1cccc(-c2ccoc2)c1	inactive
O=C(O)c1ccccc1C1CCCNC1 (stereo not drawn)	inactive
N#Cc1cccc(CC2CCCNC2=O)c1 (stereo not drawn)	inactive
O=C(O)CCC(=O)Nc1ccc(-c2ccoc2)cc1	inactive

These compounds were tested against Serotonin (5-HT) receptor (Rattus norvegicus) (UniProt P35563+P35365+P32305+P31388+Q9JJ16+P28564+P30994+Q62758+P08909+P14842+P30940+P35364+P19327+P28565) (assay: Displacement of radiolabeled serotonin from 5-HT receptor in rat cerebral cortex). Details: not given.
Format: tissue-based

SMILES	Activity
O=C(O)c1ccccc1C1CCCNC1 (stereo not drawn)	inactive

Organism: Rattus norvegicus
Test: Displacement of radiolabeled naloxone from opiate receptor in rat cerebral cortex
Format: tissue-based
Details: not given

SMILES	Activity
O=C(O)c1ccccc1C1CCCNC1 (stereo not drawn)	inactive

What follows are compounds tested against T2, Phenylethanolamine N-methyltransferase (Bos taurus) (UniProt P10938) (assay: Inhibition of bovine adrenal medulla phenylethanolamine-N-methyl transferase at 10 uM). Details: not given.
T2 sequence (whole entry): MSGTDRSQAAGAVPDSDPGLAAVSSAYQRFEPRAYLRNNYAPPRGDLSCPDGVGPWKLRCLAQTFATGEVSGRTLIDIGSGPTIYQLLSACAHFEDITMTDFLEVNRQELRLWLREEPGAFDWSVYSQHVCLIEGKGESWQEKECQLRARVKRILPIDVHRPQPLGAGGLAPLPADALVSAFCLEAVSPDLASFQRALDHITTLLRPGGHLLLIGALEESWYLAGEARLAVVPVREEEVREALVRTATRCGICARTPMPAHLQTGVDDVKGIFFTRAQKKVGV
Format: tissue-based

SMILES	Activity
Nc1cccc(-c2ccoc2)c1	inactive
O=C(O)c1ccccc1C1CCCNC1 (stereo not drawn)	inactive
N#Cc1cccc(CC2CCCNC2=O)c1 (stereo not drawn)	inactive
O=C(O)CCC(=O)Nc1ccc(-c2ccoc2)cc1	inactive

Organism: Rattus norvegicus
Test: Displacement of radiolabeled kainic acid from rat cerebral cortex Kainate receptor at 10 uM
Format: tissue-based
Details: not given

SMILES	Activity
O=C(O)c1ccccc1C1CCCNC1 (stereo not drawn)	inactive

Organism: Sus scrofa
Test: Inhibition of pig liver catechol-O-methyl transferase at 10 uM
Details: not given

SMILES	Activity
Nc1cccc(-c2ccoc2)c1	inactive
O=C(O)c1ccccc1C1CCCNC1 (stereo not drawn)	inactive
N#Cc1cccc(CC2CCCNC2=O)c1 (stereo not drawn)	inactive
O=C(O)CCC(=O)Nc1ccc(-c2ccoc2)cc1	inactive

These compounds were tested against cGMP-specific 3',5'-cyclic phosphodiesterase (Homo sapiens) (UniProt O76074) (assay: Inhibition of PDE5 in human platelet cells at 10 uM). Details: not given.
Format: cell-based

SMILES	Activity
Nc1cccc(-c2ccoc2)c1	inactive
O=C(O)c1ccccc1C1CCCNC1 (stereo not drawn)	inactive
N#Cc1cccc(CC2CCCNC2=O)c1 (stereo not drawn)	inactive
O=C(O)CCC(=O)Nc1ccc(-c2ccoc2)cc1	inactive

These compounds were tested against Phosphodiesterase 4 (Homo sapiens) (UniProt P27815+Q08499+Q07343+Q08493) (assay: Inhibition of PDE4 expressed in U937 cells at 10 uM). Details: U-937.
Format: cell-based

SMILES	Activity
Nc1cccc(-c2ccoc2)c1	inactive
O=C(O)c1ccccc1C1CCCNC1 (stereo not drawn)	inactive
N#Cc1cccc(CC2CCCNC2=O)c1 (stereo not drawn)	inactive
O=C(O)CCC(=O)Nc1ccc(-c2ccoc2)cc1	inactive

What follows are compounds tested against Muscarinic acetylcholine receptor M5 (Rattus norvegicus) (UniProt P08911) (assay: Displacement of radiolabeled atropine from rat brain muscarinic M5 receptor at 10 uM). Details: not given.
Chain of Muscarinic acetylcholine receptor M5 (Rattus norvegicus) (P08911 whole entry): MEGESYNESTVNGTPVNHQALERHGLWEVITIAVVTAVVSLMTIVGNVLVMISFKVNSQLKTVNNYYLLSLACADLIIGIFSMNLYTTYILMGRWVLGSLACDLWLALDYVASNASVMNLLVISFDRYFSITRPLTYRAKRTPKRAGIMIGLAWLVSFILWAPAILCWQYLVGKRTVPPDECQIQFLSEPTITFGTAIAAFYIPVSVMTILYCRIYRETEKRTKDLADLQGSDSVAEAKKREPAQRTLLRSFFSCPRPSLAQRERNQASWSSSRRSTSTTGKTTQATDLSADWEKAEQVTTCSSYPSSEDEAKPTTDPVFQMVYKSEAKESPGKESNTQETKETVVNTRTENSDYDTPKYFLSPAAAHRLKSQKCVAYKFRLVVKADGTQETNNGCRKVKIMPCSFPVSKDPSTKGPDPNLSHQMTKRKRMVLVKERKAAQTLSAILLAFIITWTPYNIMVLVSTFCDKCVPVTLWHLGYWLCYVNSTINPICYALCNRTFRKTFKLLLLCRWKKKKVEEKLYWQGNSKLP

SMILES	Activity
O=C(O)c1ccccc1C1CCCNC1 (stereo not drawn)	inactive

What follows are compounds tested against Muscarinic acetylcholine receptor M2 (Rattus norvegicus) (UniProt P10980) (assay: Displacement of radiolabeled atropine from rat brain muscarinic M2 receptor at 10 uM). Details: not given.

SMILES	Activity
O=C(O)c1ccccc1C1CCCNC1 (stereo not drawn)	inactive

The compounds below were run against Muscarinic acetylcholine receptor M3 (Rattus norvegicus) (UniProt P08483) (assay: Displacement of radiolabeled atropine from rat brain muscarinic M3 receptor at 10 uM). Details: not given.

SMILES	Activity
O=C(O)c1ccccc1C1CCCNC1 (stereo not drawn)	inactive

These compounds were tested against Phosphodiesterase 3 (Homo sapiens) (UniProt Q14432+Q13370) (assay: Inhibition of PDE3 expressed in human platelets at 10 uM). Details: not given.

SMILES	Activity
Nc1cccc(-c2ccoc2)c1	inactive
O=C(O)c1ccccc1C1CCCNC1 (stereo not drawn)	inactive
N#Cc1cccc(CC2CCCNC2=O)c1 (stereo not drawn)	inactive
O=C(O)CCC(=O)Nc1ccc(-c2ccoc2)cc1	inactive

The compounds below were run against 4-aminobutyrate aminotransferase, mitochondrial (Rattus norvegicus) (UniProt P50554) (assay: Inhibition of rat brain GABA transaminase at 10 uM). Details: not given.
Chain of 4-aminobutyrate aminotransferase, mitochondrial (Rattus norvegicus) (P50554 28-500 limits assumed): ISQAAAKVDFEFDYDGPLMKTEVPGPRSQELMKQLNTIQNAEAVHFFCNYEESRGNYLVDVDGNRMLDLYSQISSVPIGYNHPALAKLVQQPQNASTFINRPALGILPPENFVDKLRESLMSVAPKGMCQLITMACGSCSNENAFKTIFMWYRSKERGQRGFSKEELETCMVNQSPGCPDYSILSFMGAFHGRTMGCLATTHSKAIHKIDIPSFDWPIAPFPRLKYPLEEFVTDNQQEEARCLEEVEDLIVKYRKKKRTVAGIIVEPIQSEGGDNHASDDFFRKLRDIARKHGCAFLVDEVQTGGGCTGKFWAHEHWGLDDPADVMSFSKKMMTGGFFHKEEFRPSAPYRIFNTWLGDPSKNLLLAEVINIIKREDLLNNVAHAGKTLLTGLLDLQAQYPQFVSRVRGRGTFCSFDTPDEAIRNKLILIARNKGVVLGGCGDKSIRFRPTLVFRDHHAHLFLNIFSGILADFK

SMILES	Activity
Nc1cccc(-c2ccoc2)c1	inactive
O=C(O)c1ccccc1C1CCCNC1 (stereo not drawn)	inactive
N#Cc1cccc(CC2CCCNC2=O)c1 (stereo not drawn)	inactive
O=C(O)CCC(=O)Nc1ccc(-c2ccoc2)cc1	inactive

Organism: Bos taurus
Test: Inhibition of bovine lung guanylyl cyclase at 10 uM
Details: not given

SMILES	Activity
Nc1cccc(-c2ccoc2)c1	inactive
O=C(O)c1ccccc1C1CCCNC1 (stereo not drawn)	inactive
N#Cc1cccc(CC2CCCNC2=O)c1 (stereo not drawn)	inactive
O=C(O)CCC(=O)Nc1ccc(-c2ccoc2)cc1	inactive

Each compound was assayed against Adrenergic receptor alpha-1 (Rattus norvegicus) (UniProt P15823+P23944+P43140) (assay: Displacement of radiolabeled prazosin from adrenergic alpha1 receptor in rat cerebral cortex). Details: not given.
Format: tissue-based

SMILES	Activity
O=C(O)c1ccccc1C1CCCNC1 (stereo not drawn)	inactive

These compounds were tested against Adrenergic receptor alpha-2 (Rattus norvegicus) (UniProt P22086+P19328+P22909) (assay: Displacement of radiolabeled yohimbine from adrenergic alpha-2 receptor in rat cerebral cortex). Details: not given.
Format: tissue-based

SMILES	Activity
O=C(O)c1ccccc1C1CCCNC1 (stereo not drawn)	inactive

These compounds were tested against Acetylcholinesterase (Homo sapiens) (UniProt P22303) (assay: Inhibition of human recombinant AChE expressed in HEK293 cells at 10 uM). Details: not given.
Format: cell-based

Chain of Acetylcholinesterase (Homo sapiens) (P22303 whole entry): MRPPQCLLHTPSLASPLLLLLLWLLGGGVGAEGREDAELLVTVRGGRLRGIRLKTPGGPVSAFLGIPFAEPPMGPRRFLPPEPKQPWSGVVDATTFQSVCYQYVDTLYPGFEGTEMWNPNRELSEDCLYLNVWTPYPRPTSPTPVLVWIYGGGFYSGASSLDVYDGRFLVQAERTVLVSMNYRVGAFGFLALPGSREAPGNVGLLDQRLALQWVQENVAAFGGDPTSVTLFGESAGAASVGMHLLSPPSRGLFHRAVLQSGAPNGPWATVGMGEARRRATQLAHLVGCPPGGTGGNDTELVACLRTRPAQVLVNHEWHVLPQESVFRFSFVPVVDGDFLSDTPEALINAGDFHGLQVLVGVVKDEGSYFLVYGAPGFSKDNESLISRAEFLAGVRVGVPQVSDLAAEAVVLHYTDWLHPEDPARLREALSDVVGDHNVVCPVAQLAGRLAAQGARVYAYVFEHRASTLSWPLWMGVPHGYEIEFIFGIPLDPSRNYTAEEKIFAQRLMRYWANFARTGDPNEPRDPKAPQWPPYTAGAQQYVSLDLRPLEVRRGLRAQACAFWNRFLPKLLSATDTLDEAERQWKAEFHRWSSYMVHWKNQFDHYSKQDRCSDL

SMILES	Activity
Nc1cccc(-c2ccoc2)c1	inactive
O=C(O)c1ccccc1C1CCCNC1 (stereo not drawn)	inactive
N#Cc1cccc(CC2CCCNC2=O)c1 (stereo not drawn)	inactive
O=C(O)CCC(=O)Nc1ccc(-c2ccoc2)cc1	inactive

Organism: Rattus norvegicus
Test: Inhibition of rat brain adenylyl cyclase at 10 uM
Details: not given

SMILES	Activity
Nc1cccc(-c2ccoc2)c1	inactive
O=C(O)c1ccccc1C1CCCNC1 (stereo not drawn)	inactive
N#Cc1cccc(CC2CCCNC2=O)c1 (stereo not drawn)	inactive
O=C(O)CCC(=O)Nc1ccc(-c2ccoc2)cc1	inactive
